1 molecule from patent publication US9492428B2, “Compounds, compositions, pharmaceutical compositions, and methods of use” (University of Louisville Research Foundation, Inc., priority 2011, dated 2016) can be followed below.

What all share (type): cell-based, human
Experiment [1] concerns PC-3 cells. Nature of the experiment: Clonogenic assay in PC-3. Here is the method: FIG. 7. Clonogenic assays in prostate cancer cells treated with compound I-1. Prostate cancer cells, DU145 (A) or PC3 (B), were plated at very low density in 6-well plates and incubated 18 h at 37° C. Cells were treated by addition of various concentrations of compound I-1 or with an equivalent volume of vehicle (DMSO), or were left untreated. After 10 days of treatment, cells were washed with cold PBS, fixed with paraformaldehyde, and stained with crystal violet solution.
Clonogenic Assay. Cells in fresh complete medium were plated at very low density (3×10^2 per well) into six-well plates for 18 h. After complete adhesion, cells were treated with compound I-1 by adding directly to the medium to give the concentration indicated in the figures. Cells were allowed to grow until visible colonies formed (10 days). Cell colonies were fixed with 4% paraformaldehyde in PBS (phosphate-buffered saline), stained with 0.25% crystal violet in 25% methanol, washed and air-dried.

The test system of experiment [2] is DU145 cells. In words: Trypan blue exclusion assay (cell death). The settings on record: 10 μM, 72 h. Here is the method: FIG. 12. Trypan blue exclusion assay to determine cell death. DU145 prostate cancer cells were left untreated or treated with 10 μM compound I-1 or with vehicle (DMSO) for 72 h. After treatment, all cells (both adherent and floating) were harvested, stained with trypan blue, and counted immediately to determine the percentage of non-viable cells (stained blue). Columns represent the mean of three independent experiments, bars represent standard error, and numbers above each column represent the percentage of blue cells in the sample.
Compound I-1 promotes cell death by apoptosis. Because prolonged cell cycle arrest can cause induction of cell death, we next investigated the viability of prostate cancer cells treated with compound I-1. To begin, we used the trypan blue exclusion assay, which is based on the principle that live cells will exclude membrane-impermeable dyes such as trypan blue, whereas trypan blue will get inside the dead cells and stain them. […] To determine whether apoptosis (programmed cell death) is the cause of cell death induced by compound I-1, we examined the cells for biochemical and morphological markers of apoptosis. […]

The subject of experiment [3] is DU145 cells. Nature of the experiment: Annexin V-FITC / propidium iodide flow cytometry (apoptosis). The protocol: FIG. 9. Effect of compound I-1 at 5 μM on cell cycle and apoptosis. Cells were then harvested by trypsinization. (A) For flow cytometric analysis of cell cycle parameters, cells were fixed, and stained with propidium iodide. Each histogram indicates the percent of cells in G1, S, and G2/M phases of the cell cycle. Data were gated to exclude apoptotic cells for these calculations. (B) For apoptosis detection, cells were incubated with FITC-conjugated Annexin V and propidium iodide. Flow cytometric analysis was performed and the histogram for each sample was split into four quadrants to indicate: viable cells (lower left quadrant), apoptotic cells (lower right quadrant), necrotic cells (upper left quadrant), and necrotic/late apoptotic cells (upper right quadrant).
FIG. 13. Assays to detect apoptosis in DU145 cells. Prostate cancer cells were left untreated (−) or treated with 10 μM compound I-1 or with vehicle (DMSO) for the time indicated in the figure. (A) After treatment, cells were harvest by trypsinization, washed with PBS, and then incubated with FITC-conjugated Annexin V and propidium iodide. Flow cytometric analysis was performed. The histogram for each sample was split into four quadrants to indicate: viable cells (lower left quadrant), apoptotic cells (lower right quadrant), necrotic cells (upper left quadrant), and necrotic/late apoptotic cells (upper right quadrant). (B) After treatment, cells were lysed and total lysates were analyzed for cellular apoptotic markers by immunoblotting using anti-[…] or antibodies specific to the activated form of Caspase-3 (cleaved Caspase-3). Anti-GAPDH-1 antibody was used as loading control. (C) Some cells were harvested by trypsinization, washed with PBS, and total DNA was extracted then analyzed on a 1.8% agarose gel. M indicates DNA size marker (base pairs).
Flow cytometric assays of cell cycle and cell death. Cells in fresh complete medium were plated (2×10^5 per well) into six-well plates for 18 h. After complete adhesion, cells were treated as indicated in the figures and harvested by trypsinization. For cell cycle distribution, cells were fixed, and stained with propidium iodide using the Cycle Test Plus kit (Becton Dickinson). For cell death detection, cells were stained with Annexin-V-FITC and propidium iodide using the Apoptosis Detection Kit (BD Biosciences), according to the manufacturer's instructions. Cells were then analyzed by flow cytometry using a FACScalibur cytometer (BD Biosciences, Mountain View, Calif.) and FlowJo program (Tree Star, Inc., Ashland, Oreg.).
Compound I-1 promotes cell death by apoptosis. Because prolonged cell cycle arrest can cause induction of cell death, we next investigated the viability of prostate cancer cells treated with compound I-1. To begin, we used the trypan blue exclusion assay, which is based on the principle that live cells will exclude membrane-impermeable dyes such as trypan blue, whereas trypan blue will get inside the dead cells and stain them. […] To determine whether apoptosis (programmed cell death) is the cause of cell death induced by compound I-1, we examined the cells for biochemical and morphological markers of apoptosis. Cells undergoing apoptosis specifically translocate the membrane phospholipid phosphatidylserine (PS) from the inner face of the plasma membrane to the cell surface; therefore, apoptotic cells can be identified by the presence of PS on the cell surface. Detection of PS is achieved by staining with a fluorescent conjugate of Annexin V, a protein that has a high affinity for PS, followed by flow cytometry analysis. Cells are stained in parallel with propidium iodide (PI), which can only enter the cell when the plasma membrane is damaged. This allows early apoptotic cells (positive for PS, but negative for PI) to be distinguished from late apoptotic and necrotic cells (positive for both PS and PI).
(In general: A flow cytometer gives signals particle by particle.)

On to `C[C@@H]1CC[C@H]2C3C(O[C@]4([C@]5(O)CC6(C)C(=O)OC5C[C@@]6(C)O)CC[C@@]31O4)[C@H]1O[C@]13CC=CC(=O)[C@]23C` (stereo partly shown) [I-1], for which, in experiment [1] (2.5 μM, 10 days), the “effect on colony formation” value is “Inhibitory effects”. In addition, the “concentration that blocked the capacity of single cancer cells to generate colonies” value in experiment [1] (10 days of treatment) was no less than 5 µM. Besides, in experiment [2], the “dead cells (trypan blue)” value is roughly 90%. Besides, the apoptotic population was 5.2% in experiment [3] (5 μM, 24 h); 9.2% in experiment [3] (5 μM, 48 h); 11.5% in experiment [3] (5 μM, 72 h); 7.4% in experiment [3] (10 μM, 24 h). Also, the apoptotic cell population was determined as 32.3% in experiment [3] (10 μM, 48 h) and 46.4% in experiment [3] (10 μM, 72 h). In experiment [3] (10 μM, 72 h), the “population of late apoptotic/necrotic cells” value is 28.4%.
